Reference: DBAASP
Values after ≈ are worked out from the molar mass of the structure shown. One block for each molecule: values may come before it.

Legend:
Test in all cases: ≥ marks a high value that may be exact or a test limit, other limits are often not marked, values filed in µg/mL are converted to µM
[1] = system: Listeria grayi DSM 20601
[2] = system: Escherichia coli ATCC 51659
[3] = system: Staphylococcus aureus ATCC 33592
[4] = system: Acinetobacter baumannii ATCC BAA-1794
[5] = system: Pseudomonas aeruginosa PAO1
[6] = system: Staphylococcus aureus ATCC 25923
[7] = system: Enterococcus faecalis ATCC 29212
[8] = system: Enterococcus faecium
[9] = system: Staphylococcus aureus K35
[10] = system: Staphylococcus aureus K52
[11] = system: Staphylococcus aureus 68 HER 1049
[12] = system: Escherichia coli K12 MG1655
[13] = system: Salmonella enterica subsp. enterica serovar Typhimurium C77-31
[14] = system: Pseudomonas aeruginosa LCCI
[15] = system: Pseudomonas aeruginosa LC
[16] = system: Pseudomonas aeruginosa ATCC 10419
[17] = system: Staphylococcus epidermidis ATCC 12228
[18] = system: Pseudomonas aeruginosa LCGE
[19] = system: Pseudomonas aeruginosa LCCE
[20] = system: Pseudomonas aeruginosa ATCC 21630
[21] = system: Escherichia coli ATCC 25922
[22] = system: Staphylococcus aureus ATCC 29213
[23] = system: Pseudomonas aeruginosa ATCC 21625
[24] = system: Pseudomonas aeruginosa ATCC 27853
[25] = system: Pseudomonas aeruginosa CGMCC 1.860
[26] = system: Enterobacter cloacae CGMCC 1.58
[27] = system: Escherichia coli AS1.349
[28] = system: Acinetobacter baumannii CICC 22934
[29] = system: Proteus mirabilis CICC 22931
[30] = system: Klebsiella pneumoniae subsp. pneumoniae CGMCC 1.176
[31] = system: Bacillus cereus AS1.126
[32] = system: Enterococcus faecium CGMCC 1.2334
[33] = system: Staphylococcus aureus AS1.72
[34] = system: Lactococcus lactis AS1.1690
[35] = system: Enterococcus faecalis CGMCC 1.595
[36] = system: Klebsiella aerogenes CGMCC 1.876
[37] = system: Staphylococcus aureus MRSA-16
[38] = system: Staphylococcus aureus MRSA-G
[39] = system: Botrytis cinerea 101
[40] = system: Staphylococcus aureus ATCC 9144
[41] = system: Corynebacterium glutamicum ATCC 13032

Compound: CC[C@H](C)[C@H](NC(=O)CNC(=O)[C@H](CO)NC(=O)[C@H](CC(C)C)NC(=O)[C@@H](NC(=O)[C@H](CCCN=C(N)N)NC(=O)CNC(=O)[C@@H](NC(=O)[C@H](CC(C)C)NC(=O)[C@@H]1CCCN1C(=O)[C@H](CC(C)C)NC(=O)[C@@H](N)CCCCN)[C@@H](C)CC)C(C)C)C(=O)N[C@@H](CC(C)C)C(N)=O [KLPLIGRVLSGIL]
MIC [6]: 83.7 µM (≈ 115 µg/mL) | MIC [7]: > 168 µM | MIC [8]: ≥ 116 µM | MIC [9]: ≥ 58.2 µM | MIC [10]: ≥ 58.2 µM

Compound: CC[C@H](C)[C@H](NC(=O)CNC(=O)[C@H](CCCCN)NC(=O)[C@H](Cc1ccccc1)NC(=O)[C@H](CC(C)C)NC(=O)[C@H](CCCCN)NC(=O)[C@H](Cc1c[nH]c2ccccc12)NC(=O)[C@@H](N)CCCCN)C(=O)N[C@@H](CCCN=C(N)N)C(=O)N[C@@H](C)C(=O)N[C@H](C(=O)N[C@@H](CC(C)C)C(=O)N[C@@H](CCCCN)C(=O)N[C@H](C(=O)N[C@@H](CC(C)C)C(=O)O)C(C)C)C(C)C [KWKLFKGIRAVLKVL]
MIC [11]: 4.45 µM (≈ 8 µg/mL) | MIC [12]: 2.22 µM (≈ 4 µg/mL)

Compound: CC(C)C[C@H](NC(=O)[C@H](CC(C)C)NC(=O)[C@H](Cc1ccccc1)NC(=O)[C@H](CCCN=C(N)N)NC(=O)[C@H](CCCN=C(N)N)NC(=O)[C@H](CC(C)C)NC(=O)[C@H](Cc1cnc[nH]1)NC(=O)[C@H](CCCN=C(N)N)NC(=O)[C@H](CC(C)C)NC(=O)[C@@H](NC(=O)[C@H](C)NC(=O)[C@@H](N)CO)C(C)C)C(=O)N[C@@H](CCCN=C(N)N)C(=O)N[C@@H](CCCCN)C(=O)N[C@@H](Cc1cnc[nH]1)C(=O)N[C@@H](CCCN=C(N)N)C(=O)N[C@@H](CCCCN)C(=O)N[C@@H](Cc1cnc[nH]1)C(=O)O [SAVLRHLRRFLLRKHRKH]
MIC [25]: ≥ 100 µM | MIC [26]: ≥ 100 µM | MIC [27]: ≥ 100 µM | MIC [28]: ≥ 100 µM | MIC [29]: ≥ 100 µM | MIC [30]: ≥ 100 µM | MIC [31]: 1.56 µM (≈ 3.63 µg/mL) | MIC [32]: 3.13 µM (≈ 7.27 µg/mL) | MIC [33]: 1.56 µM (≈ 3.63 µg/mL) | MIC [34]: 4.69 µM (≈ 10.9 µg/mL) | MIC [35]: 3.13 µM (≈ 7.27 µg/mL) | MIC [36]: ≥ 100 µM

Compound: CC[C@H](C)[C@H](NC(=O)[C@H](C)NC(=O)[C@H](CCCCN)NC(=O)[C@@H](NC(=O)CNC(=O)CNC(=O)[C@H](Cc1c[nH]c2ccccc12)NC(=O)[C@H](Cc1ccccc1)NC(=O)[C@H](CCCCN)NC(=O)[C@H](CCCCN)NC(=O)[C@H](Cc1ccccc1)NC(=O)[C@@H](N)CO)C(C)C)C(=O)N[C@@H](Cc1ccccc1)C(=O)N[C@@H](CCCCN)C(=O)NCC(=O)N[C@@H](C)C(=O)N[C@@H](CCCN=C(N)N)C(=O)N[C@@H](CCCCN)C(=O)NCC(=O)N[C@@H](Cc1c[nH]c2ccccc12)C(=O)N[C@@H](CCCCN)C(=O)O [SFKKFWGGVKAIFKGARKGWK]
MIC [37]: ≥ 32 µM | MIC [21]: 1 µM (≈ 2.43 µg/mL) | MIC [38]: ≥ 32 µM

Second part, the molecule after the results:

MIC [1]: ≥ 60 µM
Compound: CC[C@H](C)[C@H](NC(=O)[C@H](CS)NC(=O)[C@@H](NC(=O)[C@H](CCCN=C(N)N)NC(=O)[C@H](CCCCN)NC(=O)[C@H](CC(C)C)NC(=O)[C@H](Cc1ccccc1)NC(=O)[C@H](CC(N)=O)NC(=O)CNC(=O)[C@@H](N)CS)[C@@H](C)O)C(=O)N[C@@H](CS)C(=O)N[C@H](C(=O)N[C@@H](CCCCN)C(=O)N[C@@H](CCCCN)C(=O)O)C(C)C [CGNFLKRTCICVKK]

MIC [2]: ≥ 80.6 µM | MIC [3]: ≥ 80.6 µM | MIC [4]: ≥ 80.6 µM | MIC [5]: > 80.6 µM
Compound: CC(C)C[C@H](NC(=O)[C@H](CCCCN)NC(=O)[C@H](CCC(=O)O)NC(=O)[C@H](CCCCN)NC(=O)[C@@H](NC(=O)[C@H](CCCCN)NC(=O)[C@H](CCCCN)NC(=O)[C@H](Cc1ccccc1)NC(=O)[C@H](Cc1cnc[nH]1)NC(=O)[C@H](CCC(=O)O)NC(=O)[C@H](CO)NC(=O)[C@H](Cc1ccccc1)NC(=O)[C@H](Cc1c[nH]c2ccccc12)NC(=O)[C@H](CC(N)=O)NC(=O)[C@H](CCCN=C(N)N)NC(=O)[C@@H](NC(=O)[C@H](CCCCN)NC(=O)[C@@H](NC(=O)[C@H](CO)NC(=O)[C@@H](N)Cc1ccccc1)[C@@H](C)O)[C@@H](C)O)C(C)C)C(=O)N[C@@H](CCCCN)C(=O)N[C@@H](CC(=O)O)C(=O)N[C@H](C(=O)N[C@@H](Cc1ccccc1)C(=O)N[C@@H](C)C(=O)O)[C@@H](C)O [FSTKTRNWFSEHFKKVKEKLKDTFA]

MIC [13]: ≥ 256 µM | MIC [14]: ≥ 256 µM | MIC [15]: ≥ 256 µM | MIC [16]: ≥ 256 µM | MIC [17]: 128 µM (≈ 283 µg/mL) | MIC [18]: ≥ 256 µM | MIC [19]: ≥ 256 µM | MIC [20]: ≥ 256 µM | MIC [21]: 128 µM (≈ 283 µg/mL) | MIC [22]: 128 µM (≈ 283 µg/mL) | MIC [23]: ≥ 256 µM | MIC [24]: 128 µM (≈ 283 µg/mL)
Compound: CC[C@H](C)[C@H](NC(=O)[C@H](CCCCN)NC(=O)[C@H](CCCCN)NC(=O)[C@H](CC(C)C)NC(=O)[C@H](CCCN=C(N)N)NC(=O)[C@H](CCCCN)NC(=O)[C@H](CCCN=C(N)N)NC(=O)[C@H](CCCCN)NC(=O)[C@H](CCCCN)NC(=O)[C@H](CCCCN)NC(=O)[C@H](CCCN=C(N)N)NC(=O)[C@H](CC(C)C)NC(=O)[C@H](CCCN=C(N)N)NC(=O)[C@H](CCCN=C(N)N)NC(=O)[C@H](Cc1ccccc1)NC(=O)[C@@H](N)CCCN=C(N)N)C(N)=O [RFRRLRKKKRKRLKKI]

MIC [39]: ≥ 100 µM | MIC [40]: ≥ 100 µM | MIC [21]: > 100 µM | MIC [41]: ≥ 100 µM
Compound: CC[C@H](C)[C@H](NC(=O)[C@H](CCCCN)NC(=O)[C@@H](NC(=O)[C@H](CCCN=C(N)N)NC(=O)[C@H](C)NC(=O)[C@H](CCC(=O)O)NC(=O)[C@H](CCC(=O)O)NC(=O)[C@@H]1CCCN1C(=O)[C@@H](N)CO)C(C)C)C(=O)N[C@@H](CC(C)C)C(=O)N[C@H](C(=O)N[C@@H](C)C(=O)N[C@H](C(=O)N1CCC[C@H]1C(=O)N[C@@H](CCC(=O)O)C(=O)N[C@@H](CCSC)C(=O)N[C@@H](CCCN=C(N)N)C(=O)N[C@@H](CCC(=O)O)C(=O)N[C@@H](CCC(=O)O)C(=O)N[C@@H](CC(=O)O)C(=O)N[C@@H](CC(C)C)C(=O)N[C@@H](CO)C(=O)N[C@@H](CCC(=O)O)C(=O)N[C@@H](CCC(=O)O)C(=O)O)[C@@H](C)CC)[C@@H](C)O [SPEEARVKILTAIPEMREEDLSEE]
